The structures appear in SMILES notation. Structures can show the parent of a compound that is named as a salt.

The target of experiment [1] is TYK2 JH2 pseudokinase (Homo sapiens, UniProt P29597). The experiment in a line: Inhibitory activity on TYK2 JH2 pseudokinase (TR-FRET). It is filed as binding. Conditions: 60 min room temperature, read-out: Kinase half maximal inhibitory concentration IC50 TYK2 JH2. Here is the method:
In this experiment, the inhibitory effect of compounds on TYK2 JH2 pseudokinase was tested using the method of time-resolved fluorescence resonance energy transfer (TR-FRET). In the experiment, TYK2 JH2 or JAK1 JH2 pseudokinase can simultaneously bind to fluorescently labeled Tracer and Tb antibody to form a “sandwich structure”. Tb antibody, functioning as a fluorescent donor, produces fluorescence at a wavelength of 495 nm under the excitation of light at a specific wavelength. Tracer, functioning as a fluorescent acceptor, can receive fluorescence at a wavelength of 495 nm and thus produce fluorescence at a wavelength of 520 nm, i.e., a time-resolved fluorescence resonance energy transfer (TR-FRET) signal, only when it is within the “sandwich structure”, i.e., when it is sufficiently close to Tb antibody. When the compound is added to compete with Tracer for binding to the pseudokinase, the binding of Tracer decreases, leading to a weakened TR-FRET signal. The inhibitory activity of the compound binding to the pseudokinase can be reflected by the ratio of signal values at 520 nm/495 nm.
The working solution consists of the following components: HEPES (pH 7.5) at a final concentration of 20 mM; MgCl2 at a final concentration of 10 mM; Brij-35 at a final concentration of 0.015%; DTT at a final concentration of 2 mM; and BSA at a final concentration of 50 μg/mL.
• a) The compound was dissolved in DMSO to achieve a storage concentration of 10 mM. • b) Various concentrations of the compound, 200 times the final concentration, were prepared in a compound dilution plate and transferred to an Echo plate. • c) The Echo instrument was used to transfer 150 nL of the compound from the Echo plate to a 384-well experimental plate. • d) 5 μL of TYK2 JH2 kinase, at three times the final concentration, was added to the 384-well experimental plate. • e) 5 μL of Tb, at three times the final concentration, was added to the 384-well experimental plate. • f) 5 μL of Tracer, at three times the final concentration, was added to the 384-well experimental plate. • g) The plate was centrifuged for 30 seconds and then incubated at room temperature for 60 minutes. • h) The fluorescence signal values at 520 nm/495 nm were measured using an Envision plate reader (PerkinElmer).
Data analysis was performed using the XL-Fit software to determine the IC50 of the compounds.
Background: TR-FRET usually uses a lanthanide donor and a delayed reading to cut background.

In experiment [2] the target is Ba/F3-FL-TYK2-E957D cells (Homo sapiens, UniProt P29597, E957D, cells depend on it). The experiment in a line: Proliferation of Ba/F3-FL-TYK2-E957D cells (CellTiter-Glo). The conditions noted are these: 72 hours, read-out: Half maximal inhibitory concentration IC50 for cells Ba/F3-FL-TYK2-E957D. It is filed as cell-based, mouse. The text has this: Adenosine triphosphate (ATP) serves as a universal energy carrier in various life processes, representing the smallest unit of energy storage and transfer. The CellTiter-Glo™ Luminescent Cell Viability Assay Kit utilizes luciferase as a detection agent. During the luminescent process, luciferase requires the participation of ATP. By adding CellTiter-Glo™ reagent to the cell culture medium and measuring the luminescence, the light signal was directly proportional to the amount of ATP in the system, and ATP was positively correlated with the number of viable cells. Therefore, cell proliferation can be detected by measuring ATP content using the CellTiter-Glo kit. In this test, the cell lines used were Ba/F3-FL-TYK2-E957D and Ba/F3-TEL-TYK2. Ba/F3-FL-TYK2-E957D cells can stably express the exogenously introduced human TYK2-E957D gene, and the TYK2-E957D gene sequence contains both JH1 and JH2 domains. On the other hand, Ba/F3-TEL-TYK2 cells can stably express the exogenously introduced human TEL-TYK2 gene, and the TEL-TYK2 gene sequence contains only the JH1 domain of TYK2.
The cell lines were cultured in an incubator at 37° C. with 5% CO2. Regular passaging was performed, and cells in the logarithmic growth phase were selected for plating.
• a) The test compounds were prepared into a 10 mM solution with DMSO, and then diluted to 0.3 or 1 mM with DMSO. • b) Preparation of 1000× compound storage plate (tube): The compounds were 3-fold serially diluted from the highest concentration to the lowest concentration, creating 9 different concentrations. • c) Preparation of 20× compound working solution: 49 μL of cell culture medium was added to a flat-bottomed 96-well transparent drug plate. From the 1000× compound storage plate, 1 μL of the compound was pipetted into the cell culture medium in the 96-well transparent drug plate. In the solvent control, 1 μL of DMSO was added. After the compound or DMSO was added, the mixture was homogenized using a multi-channel pipette.
• a) Cells were stained with trypan blue and viable cells were counted to ensure a cell viability of 90% or more. • b) 95 μL of cell suspension (2000 cells/well) was added to each well of the compound assay cell plate, and cell-free culture medium containing 0.1% DMSO was added to the Min control wells. • c) Administration in the compound assay cell plate: 5 μL of 20× compound working solution was added to the cell culture plate. 5 μL of DMSO-cell culture medium mixture was added to the Max control wells. The final concentration of DMSO was 0.1%. • d) The culture plate was then incubated in an incubator at 37° C. with 5% CO2 for 72 hours.
The following steps were conducted in accordance with the instructions of the Promega CellTiter-Glo Luminescent Cell Viability Assay Kit (Promega-G7573). • a) CellTiter-Glo buffer was thawed and brought to room temperature. • b) CellTiter-Glo substrate was also brought to room temperature. • c) CellTiter-Glo buffer was added to a bottle of CellTiter-Glo substrate to dissolve the substrate, thereby preparing CellTiter-Glo working solution. • d) The mixture was slowly vortexed and shaken to be fully dissolved. • e) The cell culture plate was removed and allowed to equilibrate to room temperature for 10 minutes. • f) 50 μL (equal to half the volume of cell culture medium in each well) of CellTiter-Glo working solution was added to each well. • g) The culture plate was shaken on an orbital shaker for 2 minutes to induce cell lysis. • h) The plate was then left at room temperature for 10 minutes to stabilize the luminescent signal. • i) The luminescent signal was detected using a SpectraMax Paradigm plate reader.
Data analysis was conducted using GraphPad Prism 5.0 software. Nonlinear S-curve regression was employed to fit the data and generate dose-response curves. From these curves, the IC50 values were calculated.
(In general: Cellular ATP, detected with luciferase, serves as a proxy for viable cell number.)

Ba/F3-FL-TYK2-E957D cells, sequence (P29597 whole entry E957D): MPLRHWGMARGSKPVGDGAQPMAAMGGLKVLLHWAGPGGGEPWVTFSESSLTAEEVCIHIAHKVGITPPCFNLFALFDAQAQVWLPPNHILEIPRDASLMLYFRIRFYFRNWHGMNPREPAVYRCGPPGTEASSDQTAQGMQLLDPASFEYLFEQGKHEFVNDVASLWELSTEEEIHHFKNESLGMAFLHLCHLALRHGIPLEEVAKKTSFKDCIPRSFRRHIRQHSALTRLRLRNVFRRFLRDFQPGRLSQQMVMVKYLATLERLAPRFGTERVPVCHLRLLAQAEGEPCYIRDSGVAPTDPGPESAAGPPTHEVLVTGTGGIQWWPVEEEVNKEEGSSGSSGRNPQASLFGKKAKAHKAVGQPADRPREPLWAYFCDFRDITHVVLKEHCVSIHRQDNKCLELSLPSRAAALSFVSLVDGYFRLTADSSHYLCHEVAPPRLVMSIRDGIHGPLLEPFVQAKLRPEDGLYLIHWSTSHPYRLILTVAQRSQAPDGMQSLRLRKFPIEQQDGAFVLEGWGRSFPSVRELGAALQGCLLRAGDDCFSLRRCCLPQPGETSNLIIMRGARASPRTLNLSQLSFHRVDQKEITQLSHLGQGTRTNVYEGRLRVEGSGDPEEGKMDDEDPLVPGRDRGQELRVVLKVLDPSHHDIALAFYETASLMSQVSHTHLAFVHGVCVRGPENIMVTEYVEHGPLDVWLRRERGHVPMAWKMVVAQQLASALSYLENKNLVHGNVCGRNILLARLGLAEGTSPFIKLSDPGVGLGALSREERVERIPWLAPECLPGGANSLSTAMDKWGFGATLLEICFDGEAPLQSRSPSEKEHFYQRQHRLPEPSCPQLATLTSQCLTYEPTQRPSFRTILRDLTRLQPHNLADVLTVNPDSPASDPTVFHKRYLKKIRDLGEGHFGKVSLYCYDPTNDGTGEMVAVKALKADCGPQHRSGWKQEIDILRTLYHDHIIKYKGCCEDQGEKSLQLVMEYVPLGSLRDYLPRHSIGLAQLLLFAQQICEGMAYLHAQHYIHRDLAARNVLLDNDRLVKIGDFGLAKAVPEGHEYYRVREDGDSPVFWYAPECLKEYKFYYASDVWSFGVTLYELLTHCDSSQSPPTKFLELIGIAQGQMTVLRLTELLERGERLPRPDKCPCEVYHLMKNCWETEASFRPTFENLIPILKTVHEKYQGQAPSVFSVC
TYK2 JH2 pseudokinase, sequence (P29597 589-875 limits assumed): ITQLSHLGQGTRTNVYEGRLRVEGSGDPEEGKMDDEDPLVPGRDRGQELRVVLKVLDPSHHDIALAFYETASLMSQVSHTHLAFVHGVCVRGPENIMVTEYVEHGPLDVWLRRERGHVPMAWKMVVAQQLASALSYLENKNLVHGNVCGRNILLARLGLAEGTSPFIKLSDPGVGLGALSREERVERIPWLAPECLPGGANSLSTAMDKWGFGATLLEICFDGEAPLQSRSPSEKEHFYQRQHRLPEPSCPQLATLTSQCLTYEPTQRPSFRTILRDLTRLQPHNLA

In the case of `[2H]C([2H])([2H])NC(=O)c1cnc(NC(=O)C2CC2)cc1Nc1cccc(-c2ncc(S(C)(=N)=O)cn2)c1OC` (stereo not shown) [WX-003], in experiment [1], the IC50 was 0.34 nM. In the case of `[2H]C([2H])([2H])NC(=O)c1cnc(NC(=O)C2CC2)cc1Nc1cccc(-c2ccc(S(C)(=O)=O)cn2)c1OC` [WX-004], the IC50 in experiment [1] was found to be 0.2 nM. For the same compound, the GI50 in experiment [2] is 5.5 nM. Taken in the same sequence, the figures for `[2H]C([2H])([2H])NC(=O)c1cnc(NC(=O)C2CC2)cc1Nc1cccc(-c2ncc(S(C)(=O)=O)cn2)c1OC` [Hydrochloride of WX-001] were 0.27 nM and 13.7 nM.

Turning to `COc1c(Nc2cc(NC(=O)C3CC3)nnc2C(N)=O)cccc1-c1ccc(P(=O)(C2CC2)C2CC2)cn1` [Trifluoroacetate of WX-035], in experiment [2], the GI50 amounted to 6.7 nM. The same measure, in the same setting: the same measure for `CNC(=O)c1cnc(NC(=O)C2CC2)cc1Nc1cccc(-c2ccc(S(=O)(=O)C(C)C)nc2)c1OC` [WX-039]: 4.7 nM. On to `CNC(=O)c1cnc(NC(=O)C2CC2)cc1Nc1cccc(-c2ncc(S(=O)(=O)N3CCC3)cn2)c1OC` [Hydrochloride of WX-018], for which, in experiment [1], the IC50 worked out at 0.13 nM. The GI50 in experiment [2] is 4.2 nM. Take `CCN=S(=O)(c1ccc(-c2cccc(Nc3cc(NC(=O)C4CC4)nnc3C(=O)NC)c2OC)nc1)C(C)C` (stereo not shown) [Hydrochloride of WX-016]: in experiment [2], the GI50 came to 11.7 nM.

`[2H]C([2H])([2H])NC(=O)c1cnc(NC(=O)C2CC2)cc1Nc1cccc(-c2ncc(S(=O)(=O)N3CCCC3)cn2)c1OC` [Hydrochloride of WX-006]: in experiment [2], the GI50 came to 10.6 nM. Still for that read-out and setting: the same measure for `[2H]C([2H])([2H])NC(=O)c1cnc(NC(=O)C2CC2)cc1Nc1cccc(-c2ncc(S(=O)(=O)N(C)C)cn2)c1OC` [WX-005]: 2.2 nM; for `CNC(=O)c1nnc(NC(=O)C2CC2)cc1Nc1cccc(-c2ncc(S(=N)(=O)C3CC3)cn2)c1OC` (stereo not shown) [WX-028]: 4 nM. With `CN=S(=O)(c1ccc(-c2cccc(Nc3cc(NC(=O)C4CC4)nnc3C(=O)NC)c2OC)nc1)C(C)C` (stereo not shown) [Trifluoroacetate of WX-014], in experiment [2], the GI50 amounted to 10.9 nM. Regarding `CNC(=O)c1nnc(NC(=O)C2CC2)cc1Nc1cccc(-c2ccc(P(=O)(C(C)C)C(C)C)cc2)c1OC` [WX-023], in experiment [2], the GI50 came to 13.8 nM.

In the case of `[2H]C([2H])([2H])NC(=O)c1cnc(NC(=O)C2CC2)cc1Nc1cccc(-c2ncc([S+](C)[O-])cn2)c1OC` (stereo not shown) [Hydrochloride of WX-002], the IC50 in experiment [1] came to 0.19 nM. In addition, the GI50 in experiment [2] was 19.2 nM. Turning to `CCP(=O)(CC)c1ccc(-c2cccc(Nc3cc(NC(=O)C4CC4)ncc3C(=O)NC)c2OC)cc1` [WX-025], the GI50 in experiment [2] was 12.7 nM. Same read-out and setting: the same measure for `CNC(=O)c1nnc(NC(=O)C2CC2)cc1Nc1cccc(-c2ccc(S(=N)(=O)C(C)C)nc2)c1OC` (single isomer, unassigned) [WX-037B]: 17 nM; for `COc1c(Nc2cc(NC(=O)C3CC3)nnc2C(N)=O)cccc1-c1ccc(S(=N)(=O)C(C)C)cn1` (stereo not shown) [Hydrochloride of WX-032]: 2.9 nM. Same read-out and setting: the same measure for `[2H]C([2H])([2H])NC(=O)c1nnc(NC(=O)C2CC2)cc1Nc1cc(F)cc(-c2ccc(P(C)(C)=O)cc2)c1OC` [Hydrochloride of WX-027]: 18.3 nM.

For `CNC(=O)c1nnc(NC(=O)C2CC2)cc1Nc1cccc(-c2ccc(S(=N)(=O)C(C)C)nc2)c1OC` (single isomer, unassigned) [WX-037A], the GI50 in experiment [2] worked out at 15 nM.

For the compound `CCN=S(=O)(c1cnc(-c2cccc(Nc3cc(NC(=O)C4CC4)nnc3C(=O)NC)c2OC)nc1)C(C)C` (stereo not shown) [Hydrochloride of WX-015], the GI50 in experiment [2] was determined as 13 nM. Consider `COc1c(Nc2cc(NC(=O)C3CC3)nnc2C(N)=O)cccc1-c1ncc(S(=N)(=O)C(C)C)cn1` (stereo not shown) [Hydrochloride of WX-031], for which the GI50 in experiment [2] stood at 2.6 nM.

With `CCP(=O)(CC)c1ccc(-c2cccc(Nc3cc(NC(=O)C4CC4)nnc3C(=O)NC)c2OC)nc1` [WX-022], in experiment [2], the GI50 came to 13.7 nM.

Turning to `CNC(=O)c1cnc(NC(=O)C2CC2)cc1Nc1cccc(-c2ccc(S(=O)(=O)C(C)C)nn2)c1OC` [WX-038], the GI50 in experiment [2] was 3 nM. Turning to `[2H]C([2H])([2H])NC(=O)c1nnc(NC(=O)C2CC2)cc1Nc1cccc(-c2ccc(P(C)(C)=O)cc2)c1OC` [Hydrochloride of WX-008], the GI50 in experiment [2] is 16 nM. In the case of `CNC(=O)c1nnc(NC(=O)C2CC2)cc1Nc1cccc(-c2ccc(S(=N)(=O)C(C)C)nn2)c1OC` (single isomer, unassigned) [WX-036A], in experiment [2], the GI50 is 8.3 nM. Regarding `CN=S(=O)(c1cnc(-c2cccc(Nc3cc(NC(=O)C4CC4)nnc3C(=O)NC)c2OC)nc1)C(C)C` (stereo not shown) [WX-013], the GI50 in experiment [2] came to 12.1 nM. Take `CNC(=O)c1nnc(NC(=O)C2CC2)cc1Nc1cccc(-c2ncc(S3(=O)=NCCCC3)cn2)c1OC` (stereo not shown) [Hydrochloride of WX-029]: the GI50 in experiment [2] is 3.8 nM. Turning to `[2H]C([2H])([2H])NC(=O)c1cnc(NC(=O)C2CC2)cc1Nc1cccc(-c2ccc(S(C)(=O)=O)cc2)c1OC` [Hydrochloride of WX-007], the GI50 in experiment [2] came to 9.5 nM.

The values are drawn from patent publication US20240335462A1, “SULFUR/PHOSPHORUS-CONTAINING ARYL COMPOUND AND APPLICATION THEREOF” (MEDSHINE DISCOVERY INC., priority 2021, published 2024).
